Results taken from patent US20240197670A1, “TREATMENT OF HERPES ZOSTER WITH TOPICAL TETRACAINE” (PAGARI LIFE SCIENCE CORP, priority 2022, published 2024).

Assays:
Adult human skin = experiment: Skin appearance / toxicity in skin organ culture; format: cell-based; settings: for skin color change: skin treated for 48 or 72 hours, more intense in 72 hour group, only where applied
Text: (§1) Adult human skin from a reduction mammoplasty was cleaned and cut to a thickness of 1 mm, maintaining normal skin architecture while removing underlying adipose and some of the subdermal and connective tissue. Skin was inoculated by scarification with VZV-ORF57-Luc (cell-associated virus, from a frozen stock). VZV-ORF57-Luc expresses firefly luciferase. Infected skin was placed on NetWells, which are designed to hold skin at the air-liquid interface. This orientation keeps the epidermis in contact with the air so it remains dry, while the dermis remains moist and in contact with the medium. Infected skin was scanned by IVIS Spectrum on DPI (Day Post Inoculation) 1 and 3, and prior to treatment being initiated. All treatments were started on DPI 3, but removed after different amounts of time, including after 8, 24, 48, or 72 hours. All compounds were formulated in either the test vehicle or cocoa butter (cidofovir, CDV) and applied directly to the epidermis. To remove treatment, the compound was gently wiped off the surface of the skin, and the entire skin explant was submerged and gently swirled in phosphate-buffered saline (PBS) for a few seconds to remove any residue. The topical treatment was removed prior to imaging by gently wiping it off the epidermis.
In this study, tetracaine was placed as a small drop in the center of the skin. A color change in the skin treated for 48 or 72 hours was observed, with more intense coloring in the 72 hour group. […] Each row in FIG. 5 depicts the same piece of skin over the course of the assay.

[1] = system: VZV-ORF57-Luc (Varicella Zoster Virus) in adult human skin; experiment: Antiviral evaluation against VZV in skin organ culture (SOC), bioluminescence VZV yield as fold change; format: cell-based
Method: The goal of this study was to evaluate the effect of tetracaine against VZV in a skin organ culture (SOC) model and to determine an appropriate duration of treatment in skin to prevent VZV spread. Tetracaine, either the formulation of Example 2 or the formulation of Example 7, was tested as a topical treatment (formulated in the vehicle of Example 7) against VZV infections. Control formulations (cidofovir, CDV) were formulated in cocoa butter.
as §1
FIGS. 4A-4D show VZV yield as fold change, which was calculated as the total flux (photons/sec) normalized to DPI 1 for each skin explant. Imaging started on DPI 1 and was performed every day or every other day starting on DPI 3, depending on the group. In FIGS. 4A-4D, the treatment period is highlighted by a gray box. […]

[2] = cited from earlier work

Row | SMILES | skin color change (Adult human skin) | virus spread compared to cocoa butter vehicle ([1]; formulated in cocoa butter, by end of treatment phase (FIG. 4D, 72 hours), Student's t-test p<0.01) | toxicity to the skin (Adult human skin; low bioluminescent signals in treated explants even after 3 days) | effect against VZV-infected skin as a topical treatment (study conclusion) ([1]; skin organ culture) | effect on VZV yield vs test vehicle ([1]; topical treatments of 24-72 hours started DPI 3, one-way ANOVA) | solubility in alcohol, ether, benzene and chloroform ([2]; alcohol, ether, benzene, chloroform) | solubility in water ([2]; water)
1 | Nc1ccn(C[C@@H](CO)OCP(=O)(O)O)c(=O)n1 [CDV, cidofovir] | No color change | significantly lower virus spread |  |  |  |  | 
2 | CCCCNc1ccc(C(=O)OCCN(C)C)cc1 [Tetracaine] | color change |  | not toxic to the skin | highly effective | highly effective | soluble | very slightly soluble
